Measurements from patent US9233978B2, “6-fused heteroaryldihydropyrimidines for the treatment and prophylaxis of hepatitis B virus infection” (Hoffmann-La Roche Inc., priority 2014, dated 2016).
Values after ≈ are worked out from the molar mass of the structure shown.

Experiments:
[1] = Lysa solubility; type: physicochemical; conditions: 0.05 M phosphate buffer (pH 6.5)
How it was run: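 Duplicate samples dried from 10 mM DMSO stocks, taken up in 0.05 M phosphate buffer pH 6.5, stirred 1 h, shaken 2 h and left overnight. Filtrate and 1/10 dilution quantified by direct UV or HPLC-UV, in μg/mL; above 80% of the calculated maximum, reported as greater than that value.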

[2] = tested on: HepDE19 cells; experiment: Cytotoxicity in HepDE19 cells (CCK-8) and selectivity index; type: cell-based; conditions: CC50 (HepDE19) value / EC50 (HepG2.2.15) value
From the text: (§1) HepG2.2.15 and HepDE19 are stably-transfected cell lines containing the HBV genome. Both cell lines are derived from the hepatoblastoma cell line Hep G2 (American Type Culture Collection, ATCC® HB-8065™) by the published procedures described in references: MA Selles et al. Proc. Natl. Acad. Sci. USA 1987, 84, 1005-1009 and H Guo et al. Journal of Virology 2007, 81, 12472-12484, respectively. Both cell lines were maintained in Dulbecco's modified Eagle's medium (DMEM)-F12 medium supplemented with 10% fetal bovine serum, 100 U/mL penicillin, 100 μg/mL streptomycin, and 0.5 mg/mL of G418.
(§2) HepDE19 cells were seeded into 96-well plates (5×10^3 cells per well) and treated with compounds for EC50 determination. Five days after treatment, cell viability was measured by addition of 20 μL of CCK-8 reagent. Two hours after incubation at 37° C., the absorbance at wavelengths of 450 nm and 630 nm (OD450 and OD630) was recorded by a plate reader. The concentration results in the death of 50% of the host cells (CC50) of each compound were determined.
(§3) The relative effectiveness of the compound in inhibiting viral replication compared to inducing cell death was defined as the selectivity index (CC50 value/EC50 value). Based on CC50 and EC50 data, selectivity indexes were determined.

[3] = as above; type: cell-based; conditions: human, HepDE19 cells; CCK-8 cell viability; five days after treatment
From the text: as §1, §2, §3

[4] = tested on: HBV; experiment: Anti-HBV activity in vitro, HepG2.2.15 cells, extracellular HBV DNA by qPCR; type: cell-based; conditions: Hepatitis B virus, HepG2.2.15, 120 h, HepG2.2.15 cells; HBV replication inhibited by 50%, extracellular HBV DNA by qPCR; five days after compound treatment; read-out: EC50
How it was run: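 Extracellular HBV DNA in culture supernatant was measured by qPCR after nucleic acid extraction. The supernatant came from constitutively replicating HepG2.2.15 cells exposed for five days to half-log-diluted compounds, with DMSO at 0.5% final. Cells had been plated overnight at 37 °C beforehand.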

SMILES | Lysa [1] [µg/mL] | Selectivity index (CC50/EC50) [2] | CC50 at 5 days [3] [nM] | EC50 [4] [nM] | solubility thermodynamic ([1]; phosphate buffer, pH 6.5, aqueous buffer, thermodynamic from solid) [µg/mL]
COC(=O)C1=C(CN2CCN3C(=O)N(C(C)C)C[C@@H]3[C@H]2C(=O)O)NC(c2nccs2)=N[C@H]1c1ccc(F)c(F)c1C (single isomer, unassigned) [Example 85B] | 770 | >16667 | > 100000 | 6 | 
CCOC(=O)C1=C(CN2CCN3C(=O)NCC3(C(=O)OC)C2)NC(c2nccs2)=N[C@H]1c1cccc(F)c1Cl (stereo partly drawn) [Example 24, Methyl 7-[[(4R)-4-(2-chloro-3-fluoro-phenyl)-5-ethoxycarbonyl-2-thiazol-2-yl-1,4-dihydropyrimidin-6-yl]methyl]-3-oxo-2,5,6,8-tetrahydro-1H-imidazo[1,5-a]pyrazine-8a-carboxylate] |  | 37857 | 53000 | 1 | 
CCOC(=O)C1=C(CN2CCN3C(=O)N(c4ccc(C(=O)O)cc4)C[C@@H]3C2)NC(c2nccs2)=N[C@H]1c1cccc(F)c1Cl [Example 26, (R)-6-[(S)-2-(4-Carboxy-phenyl)-3-oxo-hexahydro-imidazo[1,5-a]pyrazin-7-ylmethyl]-4-(2-chloro-3-fluoro-phenyl)-2-thiazol-2-yl-1,4-dihydro-pyrimidine-5-carboxylic acid ethyl ester] |  | 18620 | 28000 | 2 | 
CCOC(=O)C1=C(CN2CCN3C(=O)N(CC4(C(=O)O)CCC4)C[C@@H]3C2)NC(c2nccs2)=N[C@H]1c1cccc(F)c1Cl [Example 60, 6-[(S)-2-(1-Carboxy-cyclobutylmethyl)-3-oxo-hexahydro-imidazo[1,5-a]pyrazin-7-ylmethyl]-4-((R)-2-chloro-3-fluoro-phenyl)-2-thiazol-2-yl-1,4-dihydro-pyrimidine-5-carboxylic acid ethyl ester] |  | 11333 | 68000 | 6 | 436 (≈ 691 µM)
CCOC(=O)C1=C(CN2CCN3C(=O)N(CCO)CC3C2)NC(c2nccs2)=N[C@H]1c1cccc(F)c1Cl (stereo partly drawn) [Example 70, Ethyl (4R)-4-(2-chloro-3-fluoro-phenyl)-6-[[2-(2-hydroxyethyl)-3-oxo-5,6,8,8a-tetrahydro-1H-imidazo[1,5-a]pyrazin-7-yl]methyl]-2-thiazol-2-yl-1,4-dihydropyrimidine-5-carboxylate] |  | 12600 | 63000 | 5 | 
COC(=O)C1=C(CN2CCN3C(=O)NCC3(C(=O)OC)C2)NC(c2nccs2)=N[C@H]1c1ccc(F)cc1Cl (stereo partly drawn) [Example 89, Methyl 7-[[(4R)-4-(2-chloro-4-fluoro-phenyl)-5-methoxycarbonyl-2-thiazol-2-yl-1,4-dihydropyrimidin-6-yl]methyl]-3-oxo-2,5,6,8-tetrahydro-1H-imidazo[1,5-a]pyrazine-8a-carboxylate] |  | 10714 | 75000 | 7 | 
CCCOC(=O)C1=C(CN2CCN3C(=O)N(CC(C)(C)C(=O)O)C[C@@H]3C2)NC(c2nccs2)=N[C@H]1c1cccc(F)c1Cl [Example 93, 3-[(8aS)-7-[[(4R)-4-(2-chloro-3-fluoro-phenyl)-5-propoxycarbonyl-2-thiazol-2-yl-1,4-dihydropyrimidin-6-yl]methyl]-3-oxo-5,6,8,8a-tetrahydro-1H-imidazo[1,5-a]pyrazin-2-yl]-2,2-dimethyl-propanoic acid] |  | 7167 | 86000 | 12 | 
CCOC(=O)C1=C(CN2CCN3C(=O)N(CC(C)(C)C(=O)O)C[C@@H]3C2)NC(c2nc(C)cs2)=N[C@H]1c1cccc(F)c1Cl [Example 98, 3-[(8aS)-7-[[(4R)-4-(2-chloro-3-fluoro-phenyl)-5-ethoxycarbonyl-2-(4-methylthiazol-2-yl)-1,4-dihydropyrimidin-6-yl]methyl]-3-oxo-5,6,8,8a-tetrahydro-1H-imidazo[1,5-a]pyrazin-2-yl]-2,2-dimethyl-propanoic acid] |  | 6636 | 73000 | 11 | 
